From PMC3938481, “Molecular Cloning of a Novel Glucuronokinase/Putative Pyrophosphorylase from Zebrafish Acting in an UDP-Glucuronic Acid Salvage Pathway” (PLoS ONE, 2014)

Key:
Experiment in all cases: coupled HPLC assay with pea UDP-sugar pyrophosphorylase
DrGKUP = molecular target: T1, DrGKUP (Danio rerio, UniProt F6NZ60); type: biochemical; conditions: UTP, 4 mM MgCl2, 50 mM MOPS-KOH pH 7.5, 35°C
T1 construct: gene gkup; full length, 619 residues, about 70 kDa; StrepII-tag, made in Nicotiana benthamiana leaves
T1 sequence (F6NZ60 1-619): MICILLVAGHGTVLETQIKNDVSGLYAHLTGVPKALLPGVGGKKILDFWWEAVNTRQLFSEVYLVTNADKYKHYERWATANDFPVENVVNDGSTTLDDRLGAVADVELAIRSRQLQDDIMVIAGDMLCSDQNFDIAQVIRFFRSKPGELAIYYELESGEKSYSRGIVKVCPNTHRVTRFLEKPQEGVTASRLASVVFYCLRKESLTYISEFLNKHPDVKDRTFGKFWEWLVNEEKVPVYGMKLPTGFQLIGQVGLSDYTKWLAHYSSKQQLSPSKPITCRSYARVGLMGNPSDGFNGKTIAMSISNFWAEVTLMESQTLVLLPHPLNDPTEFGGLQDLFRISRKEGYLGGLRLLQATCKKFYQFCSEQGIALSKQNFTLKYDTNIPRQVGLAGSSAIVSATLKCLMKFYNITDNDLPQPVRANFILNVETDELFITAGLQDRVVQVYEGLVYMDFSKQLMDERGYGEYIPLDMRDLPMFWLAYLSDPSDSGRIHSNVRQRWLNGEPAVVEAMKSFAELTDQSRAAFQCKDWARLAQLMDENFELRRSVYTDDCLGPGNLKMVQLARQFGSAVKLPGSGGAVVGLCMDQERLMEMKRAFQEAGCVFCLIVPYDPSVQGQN

XtGKUP = molecular target: T2, XtGKUP (Xenopus tropicalis, UniProt A0A6I8PZF0); type: biochemical; conditions: ATP, UTP, 4 mM MgCl2, 50 mM MOPS-KOH pH 7.5, 35°C
T2 construct: gene XB5896631; bifunctional enzyme cloned from tadpole first-strand cDNA; StrepII-tag, made in Nicotiana benthamiana leaves
T2 sequence (A0A6I8PZF0 1-619): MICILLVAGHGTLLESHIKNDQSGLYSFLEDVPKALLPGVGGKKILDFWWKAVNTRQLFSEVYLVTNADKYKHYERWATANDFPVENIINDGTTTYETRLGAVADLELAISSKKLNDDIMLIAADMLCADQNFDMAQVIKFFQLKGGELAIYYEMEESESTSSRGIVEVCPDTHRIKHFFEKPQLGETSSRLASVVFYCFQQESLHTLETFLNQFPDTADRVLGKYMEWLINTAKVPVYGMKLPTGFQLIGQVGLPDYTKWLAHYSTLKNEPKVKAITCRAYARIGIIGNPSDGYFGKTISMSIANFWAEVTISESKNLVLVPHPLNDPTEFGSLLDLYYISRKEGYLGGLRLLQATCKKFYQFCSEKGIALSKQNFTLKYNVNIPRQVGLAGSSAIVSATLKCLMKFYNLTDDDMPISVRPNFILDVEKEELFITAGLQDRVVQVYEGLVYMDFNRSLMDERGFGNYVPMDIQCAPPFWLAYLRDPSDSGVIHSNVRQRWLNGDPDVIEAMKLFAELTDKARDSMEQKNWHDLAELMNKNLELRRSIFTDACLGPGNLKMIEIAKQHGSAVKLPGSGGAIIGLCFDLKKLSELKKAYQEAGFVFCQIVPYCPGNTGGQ

[1] = substrate: Nc1ncnc2c1ncn2[C@@H]1O[C@H](COP(=O)(O)OP(=O)(O)OP(=O)(O)O)[C@@H](O)[C@H]1O; type: biochemical, Danio rerio; conditions: GlcA and UTP, 4 mM MgCl2, 50 mM MOPS-KOH pH 7.5, 35°C, ATP 0.01-1.4 mM
From the text: coupled HPLC assay with pea UDP-sugar pyrophosphorylase on DrGK

Nc1ncnc2c1ncn2[C@@H]1O[C@H](COP(=O)(O)OP(=O)(O)OP(=O)(O)O)[C@@H](O)[C@H]1O [ATP] was tested, and the “coupled HPLC assay with pea UDP-sugar pyrophosphorylase” value (from here on “coupled HPLC assay”) (DrGKUP; GlcA) was “The product is dependent on the presence of ATP, UTP and GlcA”.

In the case of O=C(O)[C@H]1OC(O)[C@H](O)[C@@H](O)[C@@H]1O (stereo partly drawn) [D-glucuronic acid], the “coupled HPLC assay” value (DrGKUP; ATP) is reported as “The recombinant full length DrGKUP as well as the DrGK alone catalyzes the phosphorylation of GlcA” and the “coupled HPLC assay” value (XtGKUP) is reported as “we can confirm the glucuronokinase activity for the Xenopus enzyme”.

B1: DrGK (Danio rerio) (protein)
chain: AHYSSKQQLSPSKPITCRSYARVGLMGNPSDGFNGKTIAMSISNFWAEVTLMESQTLVLLPHPLNDPTEFGGLQDLFRISRKEGYLGGLRLLQATCKKFYQFCSEQGIALSKQNFTLKYDTNIPRQVGLAGSSAIVSATLKCLMKFYNITDNDLPQPVRANFILNVETDELFITAGLQDRVVQVYEGLVYMDFSKQLMDERGYGEYIPLDMRDLPMFWLAYLSDPSDSGRIHSNVRQRWLNGEPAVVEAMKSFAELTDQSRAAFQCKDWARLAQLMDENFELRRSVYTDDCLGPGNLKMVQLARQFGSAVKLPGSGGAVVGLCMDQERLMEMKRAFQEAGCVFCLIVPYDPSVQGQN
notes: C-terminal glucuronokinase (GHMP kinase) domain only, 357 residues, 40 kDa, of the 619-residue DrGKUP (N-terminal ~260-residue pyrophosphorylase domain removed); StrepII-tag; made in Nicotiana benthamiana leaves
B1 gave a Km [1] of 59.3 ± 9.1 µM and a kcat [1] of 1.3 s⁻¹.
